Earlier results, collected in patent US6511683B1, “Enchinacea supplement and method of manufacture” (Factors R & D Technologies Ltd., priority 1999, dated 2003).

Legend:
granulocytes = conditions: Awang et al.
immune system = conditions: Awang et al.

For `O=C(/C=C/c1ccc(O)c(O)c1)O[C@@H](C(=O)O)[C@@H](OC(=O)/C=C/c1ccc(O)c(O)c1)C(=O)O` [cichoric acid, 2,3-o-di-caffeoyl-tartaric acid], the phagocytosis in granulocytes (granulocytes) is given as “increase” and the “concentration that may stimulate the immune system” value (immune system) is given as at least 0.01 ppm.
